Measurements reported in US20240368156A1, “2-AZABICYCLO[2.2.1]HEPTANE KRAS INHIBITORS” (INCYTE CORPORATION, priority 2023, published 2024).

Experiments:
KRAS G12V = KRAS G12V (Homo sapiens, UniProt P01116, G12V); assay: GDP-GTP exchange assay (bodipy-GDP/GppNHp, SOS1), KRAS G12V; assay type: biochemical; settings: 2.5 nM bodipy-loaded KRAS G12V, 3 h incubation after adding GppNHp-SOS1; for certain compounds the most potent isomer is quoted; read-out: KRAS_G12V exchange assay IC50
Method: (§1) The inhibitor potency of the exemplified compounds was determined in a fluorescence based guanine nucleotide exchange assay, which measures the exchange of bodipy-GDP (fluorescently labeled GDP) for GppNHp (Non-hydrolyzable GTP analog) to generate the active state of KRAS in the presence of SOS1 (guanine nucleotide exchange factor). Inhibitors were serially diluted in DMSO and a volume of 0.1 μL was transferred to the wells of a black low volume 384-well plate. 5 µL/well volume of bodipy-loaded KRAS G12D diluted to 2.5 nM in assay buffer (25 mM Hepes pH 7.5, 50 mM NaCl, 10 mM MgCl2 and 0.01% Brij-35) was added to the plate and pre-incubated with inhibitor for 4 h at r.t. Appropriate controls (enzyme with no inhibitor or with a G12D inhibitor) were included on the plate. The exchange was initiated by the addition of a 5 μL/well volume containing 1 mM GppNHp and 300 nM SOS1 in assay buffer. The 10 μL/well reaction concentration of the bodipy-loaded KRAS G12D, GppNHp, and SOS1 were 2.5 nM, 500 μM, and 150 nM, respectively. The reaction plates were incubated at r.t. for 2 h, a time estimated for complete GDP-GTP exchange in the absence of inhibitor. For the KRAS G12V mutant, similar guanine nucleotide exchange assays were used with 2.5 nM as final concentration for the bodipy loaded KRAS proteins and 3 h incubation after adding GppNHp-SOS1 mixture. A cyclic peptide described to selectively bind G12D mutant (Sakamoto et al., BBRC 484.3 (2017), 605-611) or internal compounds with confirmed binding were used as positive controls in the assay plates. Fluorescence intensities were measured on a PheraStar plate reader instrument (BMG Labtech) with excitation at 485 nm and emission at 520 nm.
(§2) Either GraphPad prism or Genedata Screener SmartFit was used to analyze the data. The IC50 values were derived by fitting the data to a four parameter logistic equation producing a sigmoidal dose-response curve with a variable Hill coefficient.
(§3) The symbol “†” indicates IC50≤100 nM, “††” indicates IC50>100 nM but ≤1 μM; and “†††” indicates IC50 is >1 μM but ≤5 μM, “††††” indicates IC50 is >5 µM but ≤10 μM. “NA” indicates IC50 not available.

KRAS G12D = KRAS G12D (Homo sapiens, UniProt P01116, G12D); assay: GDP-GTP exchange assay (bodipy-GDP/GppNHp, SOS1), KRAS G12D; assay type: biochemical; settings: 2.5 nM bodipy-loaded KRAS G12D, 4 h pre-incubation, 2 h reaction with GppNHp and SOS1; for certain compounds the most potent isomer is quoted; read-out: KRAS_G12D exchange assay IC50
Method: as §1, §2, §3

Sequence of KRAS G12D (P01116 1-188 isoform P01116-2 G12D): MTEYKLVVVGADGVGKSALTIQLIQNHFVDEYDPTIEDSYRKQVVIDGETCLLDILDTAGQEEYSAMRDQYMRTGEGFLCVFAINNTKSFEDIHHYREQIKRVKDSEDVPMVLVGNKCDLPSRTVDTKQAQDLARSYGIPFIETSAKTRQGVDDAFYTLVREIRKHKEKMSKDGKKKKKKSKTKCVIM
Sequence of KRAS G12V (P01116 1-188 isoform P01116-2 G12V): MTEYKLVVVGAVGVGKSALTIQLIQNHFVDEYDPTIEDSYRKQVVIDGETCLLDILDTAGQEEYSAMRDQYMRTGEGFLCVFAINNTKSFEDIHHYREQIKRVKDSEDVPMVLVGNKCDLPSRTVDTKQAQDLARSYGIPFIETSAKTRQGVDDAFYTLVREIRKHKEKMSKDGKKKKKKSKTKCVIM

| IC50 (KRAS G12V) | IC50 (KRAS G12D) | SMILES |
| --- | --- | --- |
| 5 to 10 µM | 5 to 10 µM | Cc1nc2c(F)c(-c3cccc(Cl)c3Cl)c(CCC#N)cc2c2c1cc([C@H]1[C@@H]3C[C@@H]([C@@H]4C[C@@H]43)N1C(=O)C1CC1)n2C1C2CNC1C2 (stereo partly drawn) [Example 26, 3-(1-(2-azabicyclo[2.1.1]hexan-5-yl)-2-((1R,2S,4R,5S,7R)-6-(cyclopropanecarbonyl)-6-azatricyclo[3.2.1.02,4]octan-7-yl)-7-(2,3-dichlorophenyl)-6-fluoro-4-methyl-1H-pyrrolo[3,2-c]quinolin-8-yl)propanenitrile] |
| ≤ 0.1 µM | ≤ 0.1 µM | Cc1nc2c(F)c(-c3cccc(Cl)c3Cl)c(CCC#N)cc2c2c1cc([C@H]1[C@H]3C[C@H](C[C@@H]3C(F)F)N1C(=O)C1(F)CC1)n2[C@H]1[C@H]2CN[C@@H]1C2 (atropisomer, axis not shown; (Ra)) [Example 44, 3-((Ra)-1-((1R,4R,5S)-2-Azabicyclo[2.1.1]hexan-5-yl)-7-(2,3-dichlorophenyl)-2-((1R,3R,4S,5S)-5-(difluoromethyl)-2-(1-fluorocyclopropane-1-carbonyl)-2-azabicyclo[2.2.1]heptan-3-yl)-6-fluoro-4-methyl-1H-pyrrolo[3,2-c]quinolin-8-yl)propanenitrile] |
| ≤ 0.1 µM | ≤ 0.1 µM | CN(C)C(=O)c1ccc(-c2nc3c(F)c(-c4cccc(Cl)c4Cl)c(CCC#N)cc3c3c2cc([C@H]2[C@@H]4CC[C@@H](C4)N2C(=O)C2CC2)n3[C@H]2[C@H]3CN[C@@H]2C3)cn1 [Example 12, 5-(1-((1R,4R,5S)-2-azabicyclo[2.1.1]hexan-5-yl)-8-(2-cyanoethyl)-2-((1S,3R,4R)-2-(cyclopropanecarbonyl)-2-azabicyclo[2.2.1]heptan-3-yl)-7-(2,3-dichlorophenyl)-6-fluoro-1H-pyrrolo[3,2-c]quinolin-4-yl)-N,N-dimethylpicolinamide] |
| ≤ 0.1 µM | ≤ 0.1 µM | Cc1nc2c(F)c(-c3cccc(Cl)c3Cl)c(CCC#N)cc2c2c1cc([C@H]1[C@H]3C[C@H](C[C@@H]3O)N1C(=O)C1CC1)n2C1[C@H]2CN[C@@H]1C2 (stereo partly drawn) [Example 16, 3-(1-((1R,4R)-2-azabicyclo[2.1.1]hexan-5-yl)-2-((1R,3R,4R,5S)-2-(cyclopropanecarbonyl)-5-hydroxy-2-azabicyclo[2.2.1]heptan-3-yl)-7-(2,3-dichlorophenyl)-6-fluoro-4-methyl-1H-pyrrolo[3,2-c]quinolin-8-yl)propanenitrile] |
| ≤ 0.1 µM | ≤ 0.1 µM | COC(=O)N1[C@@H]2C[C@@H]([C@@H](OC(F)F)C2)[C@@H]1c1cc2c(C)nc3c(F)c(-c4cccc(Cl)c4Cl)c(CCC#N)cc3c2n1[C@H]1[C@H]2CN[C@@H]1C2 (atropisomer, axis not shown; (Ra)) [Example 39, Methyl (1R,3R,4R,5S)-3-((Ra)-1-((1R,4R,5S)-2-azabicyclo[2.1.1]hexan-5-yl)-8-(2-cyanoethyl)-7-(2,3-dichlorophenyl)-6-fluoro-4-methyl-1H-pyrrolo[3,2-c]quinolin-2-yl)-5-(difluoromethoxy)-2-azabicyclo[2.2.1]heptane-2-carboxylate] |
| ≤ 0.1 µM | ≤ 0.1 µM | Cc1nc2c(F)c(-c3cccc(Cl)c3Cl)c(CCC#N)cc2c2c1cc([C@H]1[C@H]3C[C@H](C[C@@H]3Oc3ccccn3)N1C(=O)C1CC1)n2C1[C@H]2CN[C@@H]1C2 (stereo partly drawn) [Example 28, 3-(1-((1R,4R)-2-azabicyclo[2.1.1]hexan-5-yl)-2-((1R,3R,4R,5S)-2-(cyclopropanecarbonyl)-5-(pyridin-2-yloxy)-2-azabicyclo[2.2.1]heptan-3-yl)-7-(2,3-dichlorophenyl)-6-fluoro-4-methyl-1H-pyrrolo[3,2-c]quinolin-8-yl)propanenitrile] |
| ≤ 0.1 µM | ≤ 0.1 µM | CNC(=O)c1ccc(-c2nc3c(F)c(-c4cccc(Cl)c4Cl)c(CCC#N)cc3c3c2cc([C@H]2[C@@H]4CC[C@@H](C4)N2C(=O)C2CC2)n3[C@H]2[C@H]3CN[C@@H]2C3)cc1F [Example 14, 4-(1-((1R,4R,5S)-2-azabicyclo[2.1.1]hexan-5-yl)-8-(2-cyanoethyl)-2-((1S,3R,4R)-2-(cyclopropanecarbonyl)-2-azabicyclo[2.2.1]heptan-3-yl)-7-(2,3-dichlorophenyl)-6-fluoro-1H-pyrrolo[3,2-c]quinolin-4-yl)-2-fluoro-N-methylbenzamide] |
| ≤ 0.1 µM | ≤ 0.1 µM | Cc1nc2c(F)c(-c3cccc(Cl)c3Cl)c(CCC#N)cc2c2c1cc([C@H]1[C@H]3C[C@H](C[C@@H]3Oc3ccncc3)N1C(=O)C1CC1)n2[C@H]1[C@H]2CN[C@@H]1C2 (atropisomer, axis not shown) [Example 31, 3-((R)-1-((1R,4R,5S)-2-azabicyclo[2.1.1]hexan-5-yl)-2-((1R,3R,4R,5S)-2-(cyclopropanecarbonyl)-5-(pyridin-4-yloxy)-2-azabicyclo[2.2.1]heptan-3-yl)-7-(2,3-dichlorophenyl)-6-fluoro-4-methyl-1H-pyrrolo[3,2-c]quinolin-8-yl)propanenitrile] |
| ≤ 0.1 µM | ≤ 0.1 µM | Cc1nc2c(F)c(-c3cccc(Cl)c3Cl)c(CCC#N)cc2c2c1cc([C@H]1[C@H]3C[C@H](C[C@@H]3OC(F)(F)F)N1C(=O)C1(F)CC1)n2[C@H]1[C@H]2CN[C@@H]1C2 (atropisomer, axis not shown; (Ra)) [Example 42, 3-((Ra)-1-((1R,4R,5S)-2-azabicyclo[2.1.1]hexan-5-yl)-7-(2,3-dichlorophenyl)-6-fluoro-2-((1R,3R,4R,5S)-2-(1-fluorocyclopropane-1-carbonyl)-5-(trifluoromethoxy)-2-azabicyclo[2.2.1]heptan-3-yl)-4-methyl-1H-pyrrolo[3,2-c]quinolin-8-yl)propanenitrile] |
| ≤ 0.1 µM | ≤ 0.1 µM | Cc1nc2c(F)c(-c3cccc(Cl)c3Cl)c(CCC#N)cc2c2c1cc([C@H]1[C@H]3C[C@H]([C@@H]4C[C@@H]43)N1C(=O)C1CC1)n2[C@H]1[C@H]2CN[C@@H]1C2 (atropisomer, axis not shown; (Ra)) [Example 3, 3-((Ra)-1-((1R,4R,5S)-2-Azabicyclo[2.1.1]hexan-5-yl)-2-((1S,2S,4R,5R,7R)-6-(cyclopropanecarbonyl)-6-azatricyclo[3.2.1.0^2,4]octan-7-yl)-7-(2,3-dichlorophenyl)-6-fluoro-4-methyl-1H-pyrrolo[3,2-c]quinolin-8-yl)propanenitrile] |
| ≤ 0.1 µM | ≤ 0.1 µM | CC(C)(O)c1ccc(-c2nc3c(F)c(-c4cccc(Cl)c4Cl)c(CCC#N)cc3c3c2cc([C@H]2[C@@H]4CC[C@@H](C4)N2C(=O)C2CC2)n3[C@H]2[C@H]3CN[C@@H]2C3)cn1 [Example 13, 3-(1-((1R,4R,5S)-2-azabicyclo[2.1.1]hexan-5-yl)-2-((1S,3R,4R)-2-(cyclopropanecarbonyl)-2-azabicyclo[2.2.1]heptan-3-yl)-7-(2,3-dichlorophenyl)-6-fluoro-4-(6-(2-hydroxypropan-2-yl)pyridin-3-yl)-1H-pyrrolo[3,2-c]quinolin-8-yl)propanenitrile] |
| 5 to 10 µM | 1 to 5 µM | Cc1nc2c(F)c(-c3cccc(Cl)c3Cl)c(CCC#N)cc2c2c1cc([C@H]1[C@H]3CC[C@H](C3)N1C(=O)C1CC1)n2C1C2CNC1C2 (stereo partly drawn) [Example 25, 3-(1-(2-azabicyclo[2.1.1]hexan-5-yl)-2-((1R,3R,4S)-2-(cyclopropanecarbonyl)-2-azabicyclo[2.2.1]heptan-3-yl)-7-(2,3-dichlorophenyl)-6-fluoro-4-methyl-1H-pyrrolo[3,2-c]quinolin-8-yl)propanenitrile] |
| ≤ 0.1 µM | ≤ 0.1 µM | C[C@@H](O)c1nc2c(F)c(-c3cccc(Cl)c3Cl)c(CCC#N)cc2c2c1cc([C@H]1[C@H]3C[C@H](C[C@@H]3F)N1C(=O)C1(F)CC1)n2[C@H]1[C@H]2CN[C@@H]1C2 (single isomer, unassigned) [Example 8] |
